Data as given in US9556165B2 (priority 2012, dated 2017).
Converted amounts (≈) assume the structure as drawn.

Tests used:
Type in all cases: cell-based
strain 19 = experiment: MIC determination, broth microdilution (CLSI)
H. influenzae ATCC 49247 = experiment: MIC determination, broth microdilution (CLSI); conditions: for MIC: Haemophilus influenzae, ATCC49247, strain 13, read-out: strain 13 MIC
E. coli J62 = experiment: MIC determination, broth microdilution (CLSI)
P. aeruginosa PAO1 = experiment: MIC determination, broth microdilution (CLSI)
S. maltophilia ICB7569 = experiment: MIC determination, broth microdilution (CLSI); conditions: for MIC: Stenotrophomonas maltophilia, ICB7569, strain 10
strain 20 = experiment: MIC determination, broth microdilution (CLSI)
B. fragilis 6688 = experiment: MIC determination, broth microdilution (CLSI); conditions: for MIC: Bacteroides fragilis, 6688, strain 15, read-out: strain 15 MIC
A. baumannii ATCC15308 = experiment: MIC determination, broth microdilution (CLSI); conditions: for MIC: Acinetobacter baumannii, ATCC15308, strain 9
E. coli J62-TEM-3 = experiment: MIC determination, broth microdilution (CLSI); conditions: for MIC: Escherichia coli, J62TEM3, read-out: strain 18 MIC, strain 18
C. freundii K21/3034 = experiment: MIC determination, broth microdilution (CLSI)
[1] = system: P. aeruginosa 2297-con (AmpC derepressed); experiment: MIC determination, broth microdilution (CLSI)
M. morganii 126/3048 = experiment: MIC determination, broth microdilution (CLSI)
K. pneumoniae 60 = experiment: MIC determination, broth microdilution (CLSI)
S. pneumoniae 113 = experiment: MIC determination, broth microdilution (CLSI); conditions: Streptococcus pneumoniae, 113, strain 14; read-out: strain 14 MIC
S. aureus 133 = experiment: MIC determination, broth microdilution (CLSI); conditions: for MIC: Staphylococcus aureus, 133, strain 11, read-out: strain 11 MIC
strain 21 = experiment: MIC determination, broth microdilution (CLSI)
[2] = system: P. aeruginosa 2297 (AmpC wt); experiment: MIC determination, broth microdilution (CLSI)
M. catarrhalis ICB489 = experiment: MIC determination, broth microdilution (CLSI)
E. coli ATCC25922 = experiment: MIC determination, broth microdilution (CLSI)
E. cloacae 34654 = experiment: MIC determination, broth microdilution (CLSI)
C. perfringens DSM756 = experiment: microbe, parasite or virus in culture; conditions: strain 16

## C[C@H]1[C@H](NC(=O)/C(=N\OC(COc2ccc(C(=N)N)cc2)C(=O)O)c2csc(N)n2)C(=O)N1S(=O)(=O)O (mixture of isomers) [Example 26A, (2S and 2R)-2-({[(1Z)-1-(2-Amino-1,3-thiazol-4-yl)-2-{[(2S,3S)-2-methyl-4-oxo-1-sulfoazetidin-3-yl]amino}-2-oxoethylidene]amino}oxy)-3-(4-carbamidinoyl-phenoxy)propanoic acid]
Strain 19
  strain 19 MIC: ≦0.063 mg/L
H. influenzae ATCC 49247
  MIC: 2 µg/mL
E. coli J62
  strain 17 MIC: 0.125 µg/mL
P. aeruginosa PAO1
  strain 6 MIC: 1 µg/mL
S. maltophilia ICB7569
  MIC: 16 µg/mL
Strain 20
  strain 20 MIC: 0.125 µg/mL
B. fragilis 6688
  MIC: 8 µg/mL
A. baumannii ATCC15308
  MIC: 8 µg/mL
E. coli J62-TEM-3
  MIC: 32 µg/mL
C. freundii K21/3034
  strain 4 MIC: ≦0.063 mg/L
[1]
  strain 8 MIC: 8 µg/mL
M. morganii 126/3048
  strain 5 MIC: ≦0.063 mg/L
K. pneumoniae 60
  strain 2 MIC: 0.031 µg/mL
S. pneumoniae 113
  MIC: 32 µg/mL
S. aureus 133
  MIC: ≤ 0.063 µg/mL
Strain 21
  strain 21 MIC: 0.125 µg/mL
[2]
  strain 7 MIC: 2 µg/mL
M. catarrhalis ICB489
  strain 12 MIC: ≦0.063 mg/L
E. coli ATCC25922
  strain 1 MIC: ≦0.063 mg/L
E. cloacae 34654
  strain 3 MIC: 0.125 µg/mL

## CC1(C)[C@H](NC(=O)/C(=N\OC(COc2ccc(C(=N)N)c(O)c2)C(=O)O)c2csc(N)n2)C(=O)N1OS(=O)(=O)O (mixture of isomers) [Example 34B, (2S and 2R)-2-({[(1Z)-1-(2-Amino-1,3-thiazol-4-yl)-2-{[(3S)-2,2-dimethyl-4-oxo-1-(sulfo-oxy)azetidin-3-yl]amino}-2-oxoethylidene]amino}oxy)-3-(4-carbamimidoyl-3-hydroxyphenoxy)propanoic acid]
Strain 19
  strain 19 MIC: 4 µg/mL
H. influenzae ATCC 49247
  strain 13 MIC: 8 µg/mL
E. coli J62
  strain 17 MIC: 16 µg/mL
P. aeruginosa PAO1
  strain 6 MIC: 32 µg/mL
S. maltophilia ICB7569
  strain 10 MIC: 32 µg/mL
Strain 20
  strain 20 MIC: 4 µg/mL
A. baumannii ATCC15308
  strain 9 MIC: 32 µg/mL
E. coli J62-TEM-3
  strain 18 MIC: 32 µg/mL
C. freundii K21/3034
  strain 4 MIC: 8 µg/mL
[1]
  strain 8 MIC: 32 µg/mL
M. morganii 126/3048
  strain 5 MIC: 4 µg/mL
K. pneumoniae 60
  strain 2 MIC: 8 µg/mL
S. aureus 133
  strain 11 MIC: 0.25 µg/mL
Strain 21
  strain 21 MIC: 8 µg/mL
[2]
  strain 7 MIC: 32 µg/mL
C. perfringens DSM756
  strain 16 MIC: 32 µg/mL
M. catarrhalis ICB489
  strain 12 MIC: 0.5 µg/mL
E. coli ATCC25922
  strain 1 MIC: 8 µg/mL
E. cloacae 34654
  strain 3 MIC: 4 µg/mL

## CC1(C)[C@H](NC(=O)/C(=N\OC(COc2ccc(C(=N)N)nc2)C(=O)O)c2csc(N)n2)C(=O)N1OS(=O)(=O)O (mixture of isomers) [Example 36B, (2S and 2R)-2-({[(1Z)-1-(2-Amino-1,3-thiazol-4-yl)-2-{[(3S)-2,2-dimethyl-4-oxo-1-(sulfo-oxy)azetidin-3-yl]amino}-2-oxoethylidene]amino}oxy)-3-[(6-carbamimidoylpyridin-3-yl)oxy]propanoic acid]
Strain 19
  strain 19 MIC: 2 µg/mL
H. influenzae ATCC 49247
  strain 13 MIC: 4 µg/mL
E. coli J62
  strain 17 MIC: 4 µg/mL
P. aeruginosa PAO1
  strain 6 MIC: 16 µg/mL
S. maltophilia ICB7569
  strain 10 MIC: 16 µg/mL
Strain 20
  strain 20 MIC: 2 µg/mL
B. fragilis 6688; strain 15
  strain 15 MIC: 32 µg/mL
A. baumannii ATCC15308
  strain 9 MIC: 32 µg/mL
E. coli J62-TEM-3
  strain 18 MIC: 32 µg/mL
C. freundii K21/3034
  strain 4 MIC: 0.5 µg/mL
[1]
  strain 8 MIC: 32 µg/mL
M. morganii 126/3048
  strain 5 MIC: 2 µg/mL
K. pneumoniae 60
  strain 2 MIC: 1 µg/mL
S. aureus 133
  strain 11 MIC: 0.125 µg/mL
Strain 21
  strain 21 MIC: 2 µg/mL
C. perfringens DSM756
  strain 16 MIC: 32 µg/mL
M. catarrhalis ICB489
  strain 12 MIC: 0.5 µg/mL
E. coli ATCC25922
  strain 1 MIC: 2 µg/mL
E. cloacae 34654
  strain 3 MIC: 2 µg/mL

## C[C@H]1[C@H](NC(=O)/C(=N\OCCOc2ccc(C(=N)N)cc2)c2csc(N)n2)C(=O)N1S(=O)(=O)O [Example 9, (2S,3S)-3-{[(2Z)-2-(2-Amino-1,3-thiazol-4-yl)-2-{[2-(4-carbamimidoylphenoxy)ethoxy]imino}acetyl]amino}-2-methyl-4-oxoazetidine-1-sulfonic acid]
Strain 19
  MIC: 0.125 µg/mL (≈ 0.244 µM)
H. influenzae ATCC 49247
  MIC: 0.25 µg/mL (≈ 0.489 µM)
E. coli J62; Escherichia coli, J62, strain 17, read-out: strain 17 MIC
  MIC: 0.25 µg/mL (≈ 0.489 µM)
P. aeruginosa PAO1; Pseudomonas aeruginosa, PAO1, strain 6
  MIC: 2 µg/mL (≈ 3.91 µM)
S. maltophilia ICB7569
  MIC: 32 µg/mL (≈ 62.6 µM)
Strain 20
  MIC: 0.125 µg/mL (≈ 0.244 µM)
B. fragilis 6688
  MIC: 8 µg/mL (≈ 15.6 µM)
A. baumannii ATCC15308
  MIC: 0.5 µg/mL (≈ 0.977 µM)
E. coli J62-TEM-3
  MIC: 16 µg/mL (≈ 31.3 µM)
C. freundii K21/3034; Citrobacter freundii, K21/3034, strain 4
  MIC: 0.125 µg/mL (≈ 0.244 µM)
[1]; Pseudomonas aeruginosa, read-out: strain 8 MIC, strain 8
  MIC: 16 µg/mL (≈ 31.3 µM)
M. morganii 126/3048; Morganella morganii, 126/3048, strain 5
  MIC: 0.125 µg/mL (≈ 0.244 µM)
K. pneumoniae 60; Klebsiella pneumoniae, 60, strain 2
  MIC: 0.125 µg/mL (≈ 0.244 µM)
S. pneumoniae 113
  MIC: 4 µg/mL (≈ 7.82 µM)
S. aureus 133
  MIC: ≤ 0.063 µg/mL
Strain 21
  MIC: 0.125 µg/mL (≈ 0.244 µM)
[2]; Pseudomonas aeruginosa, strain 7
  MIC: 2 µg/mL (≈ 3.91 µM)
M. catarrhalis ICB489; Moraxella catarrhalis, ICB489, strain 12
  MIC: ≤ 0.063 µg/mL
E. coli ATCC25922; Escherichia coli, ATCC25922, strain 1
  MIC: 0.125 µg/mL (≈ 0.244 µM)
E. cloacae 34654; Enterobacter cloacae, 34654, strain 3
  MIC: 0.125 µg/mL (≈ 0.244 µM)
